Laboratory results: ChEMBL document CHEMBL5113376, “Antimalarial application of quinones: A recent update” (Eur J Med Chem, 2021)
pIC50: −log10 of the molar value. ≈ marks a conversion by molar mass, not a printed value. One block for each compound: values may come before it.

What was measured:
Plasmodium falciparum [1] = assay: Antiplasmodial activity against Plasmodium falciparum Dd2 incubated for 48 hrs; assay type: functional, organism-based; conditions: Dd2, 48 h
Plasmodium falciparum [2] = assay: Antiplasmodial activity against Plasmodium falciparum 3D7 incubated for 48 hrs; assay type: functional, organism-based; conditions: 3D7, 48 h
HepG2 = assay: Cytotoxicity against human HepG2 cells incubated for 24 hrs by MTT assay; assay type: functional
A549 = assay: Cytotoxicity against human A549 cells incubated for 24 hrs by MTT assay; assay type: functional
Plasmodium falciparum [3] = assay: Antimalarial activity against Plasmodium falciparum W2 incubated for 24 hrs; assay type: functional, organism-based; conditions: Plasmodium falciparum, W2, 24 h
Plasmodium falciparum [4] = assay: Antimalarial activity against Chloroquine resistant blood stage Plasmodium falciparum clone W2; assay type: functional, organism-based
Plasmodium berghei [5] = assay: In vivo antiplasmodial activity against Plasmodium berghei infected in Swiss mouse assessed as reduction of parasitaemia at 100 mg/kg, po for 3 days; assay type: functional; parameters: scale not given: the % may be the effect or the level left; conditions: time 3 day
Plasmodium falciparum [6] = assay: Antimalarial activity against Plasmodium falciparum D6; assay type: functional, organism-based
Plasmodium falciparum [7] = assay: Antimalarial activity against Plasmodium falciparum W2; assay type: functional, organism-based
Plasmodium falciparum [8] = assay: Antimalarial activity against Plasmodium falciparum TM91C235; assay type: functional, organism-based
Plasmodium berghei [9] = assay: Antimalarial activity against Plasmodium berghei; assay type: functional, organism-based
Plasmodium falciparum [10] = assay: Antimalarial activity against Plasmodium falciparum Dd2 treated for 48 hrs followed by hypoxanthine addition; assay type: functional, organism-based; conditions: Dd2, 48 h
Plasmodium berghei [11] = assay: In vivo antiplasmodial activity against Chloroquine susceptible Plasmodium berghei ANKA infected in CD-1 mouse assessed as decrease in parasitaemia at 30 to 50 mg/kg/day, ip relative to control; assay type: functional; parameters: scale not given: the % may be the effect or the level left; conditions: dose 30-50 mg/kg/day
Plasmodium falciparum [12] = assay: Antimalarial activity against Plasmodium falciparum K14 incubated for 42 hrs in presence of 3H-hypoxanthine by top-count microbeta counter analysis; assay type: functional, organism-based
Plasmodium falciparum [13] = assay: Antiplasmodial activity against chloroquine sensitive Plasmodium falciparum F-32 Tanzania incubated for 48 hrs; assay type: functional, organism-based
Plasmodium falciparum [14] = assay: Antimalarial activity against Plasmodium falciparum 3D7 infected in human erythrocytes; assay type: functional, organism-based; conditions: 3D7, Erythrocyte
HEK293 = assay: Cytotoxicity against HEK293 cells incubated for 48 hrs by MTT assay; assay type: functional; conditions: Homo sapiens
Plasmodium falciparum [15] = assay: Antimalarial activity against Plasmodium falciparum Dd2 by 96-well microtitre plate method based scintillation counting analysis; assay type: functional, organism-based
Plasmodium falciparum [16] = assay: Antimalarial activity against chloroquine resistant Plasmodium falciparum K1 incubated for 72 hrs by SYBR green staining based fluorescence reader method; assay type: functional, organism-based; conditions: K1, 72 h
[17] = Cytotoxicity against African green monkey Vero cells; assay type: toxicity, cell-based; conditions: chlorocebus sabaeus
[18] = Selectivity index, ratio of CC50 for african green monkey Vero cells to IC50 for Chloroquine resistant Plasmodium falciparum K1; assay type: toxicity; conditions: read-out: Ratio CC50/IC50
Plasmodium falciparum [19] = assay: Antimalarial activity against chloroquine sensitive Plasmodium falciparum D10 incubated for 72 hrs by spectrophotometric analysis; assay type: functional, organism-based; conditions: D10, 72 h
Plasmodium falciparum [20] = assay: Antimalarial activity against chloroquine resistant Plasmodium falciparum W2 incubated for 72 hrs by spectrophotometric analysis; assay type: functional, organism-based; conditions: W2, 72 h
[21] = Cytotoxicity against HMEC-1 cells treated for 72 hrs by MTT assay; assay type: toxicity, cell-based; conditions: human
Plasmodium falciparum [22] = assay: Antimalarial activity against Plasmodium falciparum K1 by 96-well microtitre plate method based scintillation counting analysis; assay type: functional, organism-based
Plasmodium falciparum [23] = assay: Antimalarial activity against Plasmodium falciparum; assay type: functional, organism-based
Plasmodium berghei [24] = assay: In vivo antiplasmodial activity against Plasmodium berghei ANKA infected in CD-1 mouse assessed as decrease in parasitaemia at 50 mg/kg, ip measured after 4 days relative to control; assay type: functional; parameters: scale not given: the % may be the effect or the level left; conditions: time 4 day
Plasmodium berghei [25] = assay: In vivo antiplasmodial activity against Plasmodium berghei ANKA infected in CD-1 mouse assessed as decrease in parasitaemia at 50 mg/kg, ip measured after 7 days relative to control; assay type: functional; parameters: scale not given: the % may be the effect or the level left; conditions: time 7 day
Plasmodium falciparum [26] = assay: Antiplasmodial activity against Chloroquine resistant Plasmodium falciparum FcB1 incubated for 48 hrs by SYBR green I based fluorescence assay; assay type: functional, organism-based; conditions: FcB1, 48 h
Plasmodium berghei [27] = assay: In vivo plasmodial activity against Plasmodium berghei ANKA infected in Swiss mouse assessed as survival rate at 50 mg/kg, ip for 4 days after infection relative to control; assay type: functional; conditions: time 4 day
Plasmodium falciparum [28] = assay: Antiplasmodial activity against Chloroquine resistant Plasmodium falciparum FcB1 incubated for 48 hrs; assay type: functional, organism-based; conditions: FcB1, 48 h
[29] = Cytotoxicity against […] LLC-PK1 cells incubated for 24 hrs by MTT assay; assay type: toxicity, cell-based, Sus scrofa; conditions: pig
[30] = Cytotoxicity against human MRC5 cells incubated for 24 hrs by MTT assay; assay type: toxicity, cell-based
Plasmodium falciparum [31] = assay: Antiplasmodial activity against Plasmodium falciparum K1; assay type: functional, organism-based
Plasmodium falciparum [32] = assay: Antimalarial activity against Plasmodium falciparum D10; assay type: functional, organism-based
[33] = Cytotoxicity against HMEC-1 cells; assay type: toxicity, cell-based; conditions: human

- pIC50 (Plasmodium falciparum [1]): 5.74
- pIC50 (Plasmodium falciparum [2]): 6.40
SMILES: CCc1cc2c(o1)C(=O)c1ccccc1C2=O

- pIC50 (Plasmodium falciparum [3]): 4.69
SMILES: CC1(C)CCC2=C(O1)c1ccccc1C(=O)C2=O [LAPACHONE]
- CC50 (HepG2): 2090 nM
- CC50 (A549): 2090 nM

SMILES: O=C1C(O)=C(CN2CC3CCC2CC3)C(=O)c2ccccc21
- pIC50 (Plasmodium falciparum [4]): 5.89
- Activity (Plasmodium berghei [5]): <=63%

- pIC50 (Plasmodium falciparum [6]): 7.20
- pIC50 (Plasmodium falciparum [7]): 6.67
- pIC50 (Plasmodium falciparum [8]): 6.46
- pIC50 (Plasmodium berghei [9]): 7.02
SMILES: CCCCCC[C@H](C)CC1=C(O)C(=O)c2ccccc2C1=O

- pIC50 (Plasmodium falciparum [10]): 7.27
SMILES: CC1=C(Cc2ccc(C(C)(C)C)cc2)C(=O)c2ccccc2C1=O
- Activity (Plasmodium berghei [11]): 20.7%

SMILES: CN(C)c1ccc(N2C(=O)C(Oc3ccc(Cl)cc3Cl)C2c2ccc3c(c2)C(=O)c2ccccc2C3=O)cc1 (stereo unspecified)
- pIC50 (Plasmodium falciparum [12]): 4.32

- pIC50 (Plasmodium falciparum [13]): 5.92
SMILES: O=C1C=C(OCc2cn(-c3ccccc3)nn2)C(=O)c2ccccc21

- pIC50 (Plasmodium falciparum [14]): 6.35
SMILES: O=C1C(O)=C(Cc2ccccc2)C(=O)c2ccccc21
- CC50 (HEK293): 54600 nM

SMILES: CN(C)c1ccc(N2C(=O)C(Oc3ccc(Cl)cc3)C2c2ccc3c(c2)C(=O)c2ccccc2C3=O)cc1 (stereo unspecified)
- pIC50 (Plasmodium falciparum [12]): 4.68

- IC50 (Plasmodium falciparum [15]): 0.8 µg/mL (≈ 2.92 µM)
SMILES: CC(C)=CCC1=C(O)C(=O)c2c(O)ccc(O)c2C1=O

- pIC50 (Plasmodium falciparum [3]): 4.80
SMILES: CC1(C)OC2=C(CC1I)C(=O)C(=O)c1ccccc12 (stereo unspecified)

- pIC50 (Plasmodium falciparum [3]): 4.71
SMILES: CC1(C)OC2=C(CC1I)C(=O)c1ccccc1C2=O (stereo unspecified)

SMILES: Cc1cc(O)c2c(c1)C(=O)c1cc(O)c(CN3CCN(C)CC3)c(O)c1C2=O
- pIC50 (Plasmodium falciparum [16]): 5.61
- CC50 [17]: 782000 nM
- selectivity ratio [18]: 315

SMILES: CCC1=C(OC)C(=O)C2=C(C1=O)S(=O)(=O)CCN2
- pIC50 (Plasmodium falciparum [19]): 5.61
- pIC50 (Plasmodium falciparum [20]): 5.63
- IC50 at 72 h [21]: > 100000 nM

SMILES: CCC1=C(NC(=O)C(C)(C)C)C(=O)C2=C(C1=O)S(=O)(=O)CCN2
- pIC50 (Plasmodium falciparum [19]): 5.21
- pIC50 (Plasmodium falciparum [20]): 5.20
- IC50 at 72 h [21]: > 100000 nM

SMILES: COC1=C(Cc2ccccc2)C(=O)C2=C(NCCS2(=O)=O)C1=O
- pIC50 (Plasmodium falciparum [19]): 6.22
- pIC50 (Plasmodium falciparum [20]): 6.15
- IC50 at 72 h [21]: 17600 nM

- IC50 (Plasmodium falciparum [22]; Plasmodium falciparum, K1): 0.751 µg/mL
SMILES: COc1cc(OC)c(-c2c(C)cc(O)c3c2C(=O)c2cccc(O)c2C3=O)c(O)c1C(C)=O

- pIC50 (Plasmodium falciparum [23]): 5.70
SMILES: Cc1oc2c(c1C(=O)NC(CCC(N)=O)C(=O)O)C(=O)c1ccccc1C2=O (stereo unspecified)

SMILES: CCN(CC)CCCC(C)Nc1ccnc2cc(Cl)ccc12 (stereo unspecified) [CHLOROQUINE]
- CC50 [17]: 227000 nM
- Activity (Plasmodium berghei [24]): 86.3%
- Activity (Plasmodium berghei [25]): 76.8%

SMILES: O=C1c2ccccc2C(=O)c2cc(C3C(Oc4ccc5ccccc5c4)C(=O)N3c3cccc4ccccc34)ccc21 (stereo unspecified)
- pIC50 (Plasmodium falciparum [12]): 4.41

SMILES: CCCN(CCC)CC1=C(O)C(=O)c2ccccc2C1=O
- pIC50 (Plasmodium falciparum [4]): 5.72
- Activity (Plasmodium berghei [5]): <=63%

- pIC50 (Plasmodium falciparum [22]): 6.64
SMILES: COc1cc(O)c(-c2c(C)cc(O)c3c2C(=O)c2ccc([C@H]4c5cccc(O)c5C(=O)c5c(O)cc(C)c(-c6c(O)cc(OC)c(C(C)=O)c6O)c54)c(O)c2C3=O)c(O)c1C(C)=O (stereo in doubt; 12)

- pIC50 (Plasmodium falciparum [1]): 5.92
- pIC50 (Plasmodium falciparum [2]): 5.82
SMILES: Cc1cc2c(o1)C(=O)c1ccccc1C2=O

SMILES: COc1ccc(N2C(=O)C(Oc3ccc(Cl)cc3Cl)C2c2ccc3c(c2)C(=O)c2ccccc2C3=O)cc1 (stereo unspecified)
- pIC50 (Plasmodium falciparum [12]): 4.33

SMILES: COc1cccc2c1C1=C(C(=O)C2=O)C(C)(C)C(C)O1 (stereo unspecified)
- pIC50 (Plasmodium falciparum [26]): 6.20
- Activity (Plasmodium berghei [27]): 80%

SMILES: COc1cc2c(cc1O)[C@H]1COC3=C(C(=O)c4ccccc4C3=O)[C@H]1O2
- pIC50 (Plasmodium falciparum [28]): ≤ 5.00

- pIC50 (Plasmodium falciparum [3]): 4.80
SMILES: CC1(C)CCC2=C(O1)C(=O)c1ccccc1C2=O [ALPHA-LAPACHONE]
- CC50 (HepG2): 2090 nM
- CC50 (A549): 2090 nM
- CC50 at 24 h [29]: 2090 nM
- CC50 at 24 h [30]: 2090 nM

- pIC50 (Plasmodium falciparum [13]): 6.10
SMILES: COc1ccc(-n2cc(COC3=CC(=O)c4ccccc4C3=O)nn2)cc1F

SMILES: O=C1c2ccccc2C(=O)c2cc(C3C(Oc4ccc(Cl)cc4)C(=O)N3c3cccc4ccccc34)ccc21 (stereo unspecified)
- pIC50 (Plasmodium falciparum [12]): 4.35

SMILES: COc1ccc2c(c1)C1=C(C(=O)C2=O)C(C)(C)C(C)O1 (stereo unspecified)
- pIC50 (Plasmodium falciparum [26]): 6.24

- pIC50 (Plasmodium falciparum [31]): 5.48
SMILES: O=C(O)c1ccc2c(n1)C(=O)C1=C(C2=O)S(=O)(=O)CCN1 [ACIDIATHIAZONE A]

- pIC50 (Plasmodium falciparum [7]): 5.79
- pIC50 (Plasmodium falciparum [32]): 5.72
SMILES: COC1=C(Cc2ccc(Cl)cc2)C(=O)C2=C(NCCS2(=O)=O)C1=O
- pIC50 [33]: 5.07

SMILES: CN(C)c1ccc(N2C(=O)C(Oc3ccccc3)C2c2ccc3c(c2)C(=O)c2ccccc2C3=O)cc1 (stereo unspecified)
- pIC50 (Plasmodium falciparum [12]): 5.05
